From the NIST ThermoML archive (doi:10.1021/acs.jced.8b00176)
± gives the expanded uncertainty stated by the source.

Key:
[1] = 100 kPa, Liquid; for viscosity: Falling or rolling sphere viscometry; for speed of sound: Frequency=3 MHz, Single path-length method; for mass density: Vibrating tube method
[2] = xn = mol fraction of the nth substance listed; details: 100 kPa, Liquid; for viscosity: Falling or rolling sphere viscometry; for speed of sound: Frequency=3 MHz, Single path-length method; for mass density: Vibrating tube method

CCCCn1cc[n+](C)c1.O=S(=O)([O-])C(F)(F)F [1-butyl-3-methylimidazolium trifluoromethanesulfonate]
[1]
Details	mass density [kg/m3]	speed of sound [m/s]	viscosity [mPa·s]
298.15 K	1297.46 ± 2.4	1393.2 ± 2.8	82.38 ± 1.7
303.15 K	1293.46 ± 2.4	1382.8 ± 2.8	66.69 ± 1.2
308.15 K	1289.47 ± 2.4	1371.7 ± 2.8	52.86 ± 0.96
313.15 K	1285.47 ± 2.4	1360.7 ± 2.8	43.67 ± 0.96
318.15 K	1281.47 ± 2.4	1349.9 ± 2.8	36.29 ± 0.92
323.15 K	1277.48 ± 2.4	1338.8 ± 2.8	30.57 ± 0.88

CC#N [acetonitrile]
[1]
Details	mass density [kg/m3]	speed of sound [m/s]	viscosity [mPa·s]
298.15 K	776.714 ± 2	1278.5 ± 2.2	0.34
303.15 K	771.289 ± 2	1258.4 ± 2.2	0.32
308.15 K	765.833 ± 2	1238.2 ± 2.2	0.31
313.15 K	760.339 ± 2	1218 ± 2.2	0.3
318.15 K	754.815 ± 2	1197.9 ± 2.2	0.29
323.15 K	749.253 ± 2	1177.8 ± 2.2	0.28

CC#N [acetonitrile] + CCCCn1cc[n+](C)c1.O=S(=O)([O-])C(F)(F)F
[2], x2 = 0
Details	mass density [kg/m3]	speed of sound [m/s]	viscosity [mPa·s]
298.15 K	776.714 ± 2	1278.5 ± 2.2	0.34
303.15 K	771.289 ± 2	1258.4 ± 2.2	0.32
308.15 K	765.833 ± 2	1238.2 ± 2.2	0.31
313.15 K	760.339 ± 2	1218 ± 2.2	0.3
318.15 K	754.815 ± 2	1197.9 ± 2.2	0.29
323.15 K	749.253 ± 2	1177.8 ± 2.2	0.28

CN(C)C=O [dimethylformamide]
[1]
Details	mass density [kg/m3]	speed of sound [m/s]	viscosity [mPa·s]
298.15 K	943.934 ± 2	1457.1 ± 2.2	0.81 ± 0.2
303.15 K	939.162 ± 2	1437.8 ± 2.2	0.77 ± 0.2
308.15 K	934.373 ± 2	1418.5 ± 2.2	0.72 ± 0.2
313.15 K	929.577 ± 2	1399.2 ± 2.2	0.69 ± 0.2
318.15 K	924.765 ± 2	1379.9 ± 2.2	0.65 ± 0.2
323.15 K	919.95 ± 2	1360.7 ± 2.2	0.62 ± 0.2

CN(C)C=O [dimethylformamide] + CC#N
[2], x1 = 1
Details	mass density [kg/m3]	speed of sound [m/s]	viscosity [mPa·s]
298.15 K	943.934 ± 2	1457.1 ± 2.2	0.81 ± 0.2
303.15 K	939.162 ± 2	1437.8 ± 2.2	0.77 ± 0.2
308.15 K	934.373 ± 2	1418.5 ± 2.2	0.72 ± 0.2
313.15 K	929.577 ± 2	1399.2 ± 2.2	0.69 ± 0.2
318.15 K	924.765 ± 2	1379.9 ± 2.2	0.65 ± 0.2
323.15 K	919.95 ± 2	1360.7 ± 2.2	0.62 ± 0.2

CN(C)C=O [dimethylformamide] + CCCCn1cc[n+](C)c1.O=S(=O)([O-])C(F)(F)F
[2], x2 = 0
Details	mass density [kg/m3]	speed of sound [m/s]	viscosity [mPa·s]
298.15 K	943.934 ± 2	1457.1 ± 2.2	0.81 ± 0.2
303.15 K	939.162 ± 2	1437.8 ± 2.2	0.77 ± 0.2
308.15 K	934.373 ± 2	1418.5 ± 2.2	0.72 ± 0.2
313.15 K	929.577 ± 2	1399.2 ± 2.2	0.69 ± 0.2
318.15 K	924.765 ± 2	1379.9 ± 2.2	0.65 ± 0.2
323.15 K	919.95 ± 2	1360.7 ± 2.2	0.62 ± 0.2
